By pIC50 is commonly meant the negative decadic logarithm of the IC50, by convention in mol/L.

In patent EP0823908B1, “PYRIDO[2,3-d]PYRIMIDINES FOR INHIBITING PROTEIN TYROSINE KINASE MEDIATED [sequence] PROLIFERATION” (Warner-Lambert Company LLC, priority 1995, dated 1996) one finds IC50 data, which are given here for one molecule.

pIC50: −log10 of the molar value.

For one assay, the system named is HCT-8. The assay can be described thus: Soft agar colony formation, human colon adenocarcinoma cells. In kind it is cell-based. The following applies: HCT-8, 336 h, read-out: Inhibition of Human Colon Adenocarcinoma IC50, HCT-8. The procedure: (§1) Three such human cell lines were identified as HCT-8, SW-620, and HT-29. In a typical assay, the cells are suspended in 0.3% soft agar containing an invention compound at various concentration levels, and are plated into six-well plates, each plate containing a 1% agar plug. The cell plates are incubated at 37°C in a humidified carbon dioxide (5%) incubator, generally for 2 weeks. At the end of the incubation period, colonies of cells are detected by staining the wells with 1 mg/mL of p-iodonitrotetrazolium violet. The cells are counted on an optical colony counter. […] TABLE III. Inhibition of Human Colon Adenocarcinoma IC50 (µM)

The test system of a further assay is SW-620. The description is as above. Format: cell-based. Particulars: SW-620, 336 h, read-out: Inhibition of Human Colon Adenocarcinoma IC50, SW-620. The procedure: as §1
The next assay relates to HT-29. The description is as above. Format: cell-based. Particulars: HT-29, 336 h, read-out: Inhibition of Human Colon Adenocarcinoma IC50, HT-29. As for the experimental part:
as §1

In assay [1] the target is T1, mouse PDGF-β receptor tyrosine kinase (Mus musculus, UniProt P05622).
T1 construct: amplify a fragment of DNA that codes for the intracellular tyrosine kinase domain; made in house; host or cells: SF9 insect cells (baculovirus)
T1 sequence (P05622 599-961 limits assumed): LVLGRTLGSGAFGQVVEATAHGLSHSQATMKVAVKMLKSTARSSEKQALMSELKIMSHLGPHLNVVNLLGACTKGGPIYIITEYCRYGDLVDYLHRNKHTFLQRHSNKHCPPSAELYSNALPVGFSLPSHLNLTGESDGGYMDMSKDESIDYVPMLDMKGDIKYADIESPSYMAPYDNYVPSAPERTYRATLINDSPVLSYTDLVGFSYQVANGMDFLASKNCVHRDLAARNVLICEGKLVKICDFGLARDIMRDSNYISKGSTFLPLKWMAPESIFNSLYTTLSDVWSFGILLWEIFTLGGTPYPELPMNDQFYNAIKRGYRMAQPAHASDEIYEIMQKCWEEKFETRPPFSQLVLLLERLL
In words: PDGF receptor tyrosine kinase assay (32P incorporation into glutamate-tyrosine co-polymer). In kind it is biochemical. Particulars: read-out: PDGFr-TK IC50. The method, boiled down:
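32P transfer from γ32P-ATP (50 µM ATP) to poly(Glu,Tyr) 4:1 was measured over 10 min at 25°C and counted after TCA precipitation onto filters, minus the no-enzyme background. Enzyme was baculovirus/SF9 lysate of the kinase domain, preincubated 10 min with inhibitor in Hepes pH 7.0, MnCl2, vanadate.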

The target in another assay is T2, C-src kinase (Homo sapiens, UniProt P12931).
T2 construct: made in house; host or cells: baculovirus infected insect cells
T2 sequence (P12931 whole entry): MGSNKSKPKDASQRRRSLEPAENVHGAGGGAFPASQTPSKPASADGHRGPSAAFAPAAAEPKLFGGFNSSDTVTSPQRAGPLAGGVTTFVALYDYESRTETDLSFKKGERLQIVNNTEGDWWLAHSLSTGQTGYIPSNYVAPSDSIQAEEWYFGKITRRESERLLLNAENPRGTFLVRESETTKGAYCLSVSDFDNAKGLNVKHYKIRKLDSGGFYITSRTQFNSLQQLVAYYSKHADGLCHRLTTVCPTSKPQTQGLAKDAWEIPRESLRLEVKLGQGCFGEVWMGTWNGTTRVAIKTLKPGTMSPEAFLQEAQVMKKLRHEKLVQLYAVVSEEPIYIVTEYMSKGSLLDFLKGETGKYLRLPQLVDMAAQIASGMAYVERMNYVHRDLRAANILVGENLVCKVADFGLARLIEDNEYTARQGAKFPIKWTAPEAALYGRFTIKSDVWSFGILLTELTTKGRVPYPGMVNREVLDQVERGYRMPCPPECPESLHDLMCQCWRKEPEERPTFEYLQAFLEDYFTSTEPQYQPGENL
In words: C-src kinase assay (poly GluTyr substrate). Format: biochemical. The following applies: read-out: C-src TK IC50.

Assay [2] has as its target T3, Human EGF receptor tyrosine kinase (Homo sapiens, UniProt P00533).
T3 construct: Human EGF receptor tyrosine kinase was isolated from A431 epidermoid carcinoma cells; endogenous in cells; host or cells: A431 epidermoid carcinoma cells
In words: EGF receptor tyrosine kinase enzyme assay (substrate peptide phosphorylation). Format: biochemical. Particulars: read-out: EGF-FL IC50.

T3 sequence (P00533 25-1210): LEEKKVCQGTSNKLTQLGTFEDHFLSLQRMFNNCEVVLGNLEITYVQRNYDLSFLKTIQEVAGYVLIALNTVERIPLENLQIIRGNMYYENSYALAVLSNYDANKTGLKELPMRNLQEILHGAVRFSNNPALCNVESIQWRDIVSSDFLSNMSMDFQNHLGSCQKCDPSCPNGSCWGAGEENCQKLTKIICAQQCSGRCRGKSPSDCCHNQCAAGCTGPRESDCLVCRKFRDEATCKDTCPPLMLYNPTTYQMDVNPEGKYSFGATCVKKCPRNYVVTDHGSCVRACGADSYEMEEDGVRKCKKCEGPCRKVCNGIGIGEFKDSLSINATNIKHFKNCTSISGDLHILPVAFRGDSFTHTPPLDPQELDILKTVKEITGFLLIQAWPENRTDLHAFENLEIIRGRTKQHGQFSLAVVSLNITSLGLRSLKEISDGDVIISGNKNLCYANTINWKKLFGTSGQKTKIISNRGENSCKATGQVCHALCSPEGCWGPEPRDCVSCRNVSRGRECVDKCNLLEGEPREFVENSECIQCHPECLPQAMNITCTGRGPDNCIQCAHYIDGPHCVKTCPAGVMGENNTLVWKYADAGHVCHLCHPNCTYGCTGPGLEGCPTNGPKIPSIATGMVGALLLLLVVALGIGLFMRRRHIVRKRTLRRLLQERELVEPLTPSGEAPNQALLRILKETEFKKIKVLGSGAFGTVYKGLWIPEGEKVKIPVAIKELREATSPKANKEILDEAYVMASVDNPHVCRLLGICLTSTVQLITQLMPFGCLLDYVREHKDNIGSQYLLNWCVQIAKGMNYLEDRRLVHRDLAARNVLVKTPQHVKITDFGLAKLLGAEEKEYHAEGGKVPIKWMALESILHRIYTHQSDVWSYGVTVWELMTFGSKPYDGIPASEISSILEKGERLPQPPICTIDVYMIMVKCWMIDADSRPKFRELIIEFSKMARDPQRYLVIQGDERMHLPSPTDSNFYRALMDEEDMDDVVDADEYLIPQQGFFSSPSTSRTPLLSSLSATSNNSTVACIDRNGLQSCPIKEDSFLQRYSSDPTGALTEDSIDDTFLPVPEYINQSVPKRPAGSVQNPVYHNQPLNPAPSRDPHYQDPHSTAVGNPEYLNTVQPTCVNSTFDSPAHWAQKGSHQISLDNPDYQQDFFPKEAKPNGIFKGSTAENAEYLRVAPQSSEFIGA

Regarding `Cn1c(=O)c(-c2c(Cl)cccc2Cl)cc2cnc(Nc3ccccc3)nc21` [Example 54, 6-(2,6-Dichlorophenyl)-8-methyl-2-phenylamino-8H-pyrido[2,3-d]pyrimidin-7-one], the pIC50 in the assay with HCT-8 was 6.28; in the assay on SW-620, 6.85; with HT-29 it was 6.31; in assay [1], 6.64; at C-src kinase, 7.62; in assay [2], 7.11.
